Laboratory results taken from patent US20180169019A1, “PROCESS FOR THE PREPARATION OF POROUS MICROPARTICLES” (BAYER PHARMA AKTIENGESELLSCHAFT, priority 2015, published 2018).

Assay: Solubility in water and organic solvents
Assay type: physicochemical

O=C(O)CCCCN(CCc1ccccc1OCc1ccc(CCc2ccccc2)cc1)Cc1ccc(C(=O)O)cc1 [Cinaciguat, 4-[((4-carboxybutyl)-{2-[(4-phenethylbenzyl)oxy]phenethyl}amino)methyl]benzoic acid]
solubility in acetone: slightly soluble | solubility in ethanol, methanol, ethyl acetate: very slightly soluble | solubility in water and dichloromethane, acetonitrile: practically insoluble
